# Target: T1, ΔF508-CFTR (Homo sapiens, UniProt P13569, DEL508-508)
# T1 construct: expressed in transfected cells
# Assay: Membrane potential optical assay (FRET voltage-sensor dyes, VIPR), identification of potentiator compounds
# Format: cell-based
# Conditions: Table 3; assay not given
# Summary of the method: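 NIH3T3 mouse fibroblasts stably expressing ΔF508-CFTR, cultured 24 h at 27 °C, were loaded with FRET voltage dyes CC2-DMPE and DiSBAC2(3). Double-addition format: first addition of Cl⁻-free (gluconate) medium with or without compound; membrane-potential change read as fluorescence on VIPR II.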
# T1 sequence (P13569 with tags, fused parts or gaps DEL508-508): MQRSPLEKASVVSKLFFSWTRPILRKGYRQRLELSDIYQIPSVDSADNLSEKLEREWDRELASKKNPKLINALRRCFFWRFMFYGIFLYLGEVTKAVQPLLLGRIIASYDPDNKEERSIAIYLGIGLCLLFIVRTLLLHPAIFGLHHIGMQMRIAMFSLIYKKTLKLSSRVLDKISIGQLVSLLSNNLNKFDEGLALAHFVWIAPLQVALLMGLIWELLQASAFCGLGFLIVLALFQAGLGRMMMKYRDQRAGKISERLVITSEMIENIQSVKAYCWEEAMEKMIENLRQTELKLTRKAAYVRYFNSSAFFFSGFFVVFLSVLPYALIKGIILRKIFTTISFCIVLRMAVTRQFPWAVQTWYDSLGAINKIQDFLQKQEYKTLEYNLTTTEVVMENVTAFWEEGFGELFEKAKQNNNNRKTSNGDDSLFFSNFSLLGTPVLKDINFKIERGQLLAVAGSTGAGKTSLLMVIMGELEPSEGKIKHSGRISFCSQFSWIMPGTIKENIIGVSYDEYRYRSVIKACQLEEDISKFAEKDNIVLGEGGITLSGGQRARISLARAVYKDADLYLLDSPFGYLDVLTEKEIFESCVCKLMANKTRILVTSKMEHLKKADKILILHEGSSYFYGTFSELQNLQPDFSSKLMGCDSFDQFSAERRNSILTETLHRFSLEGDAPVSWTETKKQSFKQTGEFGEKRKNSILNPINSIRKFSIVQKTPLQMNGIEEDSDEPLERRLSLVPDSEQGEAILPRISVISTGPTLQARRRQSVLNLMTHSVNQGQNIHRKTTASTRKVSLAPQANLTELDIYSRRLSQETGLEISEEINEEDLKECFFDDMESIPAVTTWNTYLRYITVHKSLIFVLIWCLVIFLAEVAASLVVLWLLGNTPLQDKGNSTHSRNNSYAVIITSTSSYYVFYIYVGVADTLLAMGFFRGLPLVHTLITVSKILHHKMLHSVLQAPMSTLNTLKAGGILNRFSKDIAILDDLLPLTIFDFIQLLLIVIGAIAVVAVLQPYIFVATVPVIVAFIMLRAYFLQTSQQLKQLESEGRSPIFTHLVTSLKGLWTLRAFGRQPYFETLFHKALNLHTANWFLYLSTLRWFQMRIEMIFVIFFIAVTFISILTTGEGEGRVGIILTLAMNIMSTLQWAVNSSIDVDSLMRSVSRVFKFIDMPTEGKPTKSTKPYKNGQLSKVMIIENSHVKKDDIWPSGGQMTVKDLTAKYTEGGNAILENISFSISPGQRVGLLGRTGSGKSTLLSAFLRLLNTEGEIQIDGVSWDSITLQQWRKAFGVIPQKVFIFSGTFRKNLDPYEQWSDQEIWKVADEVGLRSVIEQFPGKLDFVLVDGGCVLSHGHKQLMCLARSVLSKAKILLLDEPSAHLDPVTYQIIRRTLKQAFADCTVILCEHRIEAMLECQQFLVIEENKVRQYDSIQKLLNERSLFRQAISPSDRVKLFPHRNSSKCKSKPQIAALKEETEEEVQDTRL
row,EC50,Structure (SMILES)
1,< 10 µM,"CCCc1ccc(NC(=O)c2c[nH]c3ccccc3c2=O)cc1N(C)C [Compound 462, N-(3-dimethylamino-4-propyl-phenyl)-4-oxo-1H-quinoline-3-carboxamide]"
2,< 10 µM,"CCc1ccc(N)cc1NC(=O)c1c[nH]c2ccccc2c1=O [Compound 282, N-(5-amino-2-ethyl-phenyl)-4-oxo-1H-quinoline-3-carboxamide]"

# Same assay, conditions: Table 3; assay not given; read-out: % Activity (% Efficacy, relative efficacy)
row,Structure (SMILES),Emax
1,"O=C(Nc1cccc(OC(F)(F)F)c1)c1c[nH]c2ccccc2c1=O [Compound 62, 4-oxo-N-[3-(trifluoromethoxy)phenyl]-1H-quinoline-3-carboxamide]",25 to 100%
2,"COCCOCC(C)(C)c1ccc(NC(=O)c2c[nH]c3ccccc3c2=O)cc1O [Compound 126, N-[3-hydroxy-4-[2-(2-methoxyethoxy)-1,1-dimethyl-ethyl]-phenyl]-4-oxo-1H-quinoline-3-carboxamide]",25 to 100%
3,"CCc1ccc(NC)cc1NC(=O)c1c[nH]c2ccccc2c1=O [Compound 157, N-(2-ethyl-5-methylamino-phenyl)-4-oxo-1H-quinoline-3-carboxamide]",25 to 100%
4,"CCc1ccc(N)cc1NC(=O)c1c[nH]c2ccccc2c1=O [Compound 282, N-(5-amino-2-ethyl-phenyl)-4-oxo-1H-quinoline-3-carboxamide]",25 to 100%
5,"NS(=O)(=O)c1cccc(NC(=O)c2c[nH]c3ccccc3c2=O)c1 [Compound 9, 4-oxo-N-(3-sulfamoylphenyl)-1H-quinoline-3-carboxamide]",< 25%
6,"CC(C)c1ccc(N)cc1NC(=O)c1c[nH]c2ccccc2c1=O [Compound 101, N-(5-amino-2-isopropyl-phenyl)-4-oxo-1H-quinoline-3-carboxamide]",25 to 100%
7,"O=C(Nc1c(Cl)cccc1Cl)c1c[nH]c2ccccc2c1=O [Compound 317, N-(2,6-dichlorophenyl)-4-oxo-1H-quinoline-3-carboxamide]",25 to 100%
8,"COc1ncc(-c2ccccc2NC(=O)c2c[nH]c3ccccc3c2=O)c(OC)n1 [Compound 97, N-[2-(2,4-dimethoxypyrimidin-5-yl)phenyl]-4-oxo-1H-quinoline-3-carboxamide]",25 to 100%
9,"Cc1ccc(NC(=O)c2c[nH]c3ccccc3c2=O)cc1C [Compound 246, N-(3,4-dimethylphenyl)-4-oxo-1H-quinoline-3-carboxamide]",25 to 100%
10,"O=C1CSc2ccc(NC(=O)c3c[nH]c4ccccc4c3=O)cc2N1 [Compound 262, 1,4-dihydro-N-(3,4-dihydro-3-oxo-2H-benzo[b][1,4]thiazin-6-yl)-4-oxoquinoline-3-carboxamide]",25 to 100%
11,"O=C(Nc1ccc(CO)cc1)c1c[nH]c2ccccc2c1=O [Compound 209, N-[4-(hydroxymethyl)phenyl]-4-oxo-1H-quinoline-3-carboxamide]",25 to 100%
12,"CC(C)(C)c1ccc(NC(=O)c2c[nH]c3ccccc3c2=O)cc1C#N [Compound 13, N-(3-cyano-4-tert-butyl-phenyl)-4-oxo-1H-quinoline-3-carboxamide]",25 to 100%
13,"COc1nc2ccccc2c(OC)c1C(=O)Nc1ccccc1C(C)(C)C [Compound 296, 2,4-dimethoxy-N-(2-tert-butylphenyl)-quinoline-3-carboxamide]",25 to 100%
14,"CCOC(=O)Cc1c[nH]c2cc(NC(=O)c3c[nH]c4ccccc4c3=O)ccc12 [Compound 207, 2-[6-[(4-oxo-1H-quinolin-3-yl)carbonylamino]-1H-indol-3-yl]acetic acid ethyl ester]",25 to 100%
15,"Cn1ccc2ccc(NC(=O)c3c[nH]c4ccccc4c3=O)cc21 [Compound 169, N-(1-methyl-1H-indol-6-yl)-4-oxo-1H-quinoline-3-carboxamide]",25 to 100%
16,"CC(C)c1ccccc1NC(=O)c1c[nH]c2ccccc2c1=O [Compound 36, N-(2-isopropylphenyl)-4-oxo-1H-quinoline-3-carboxamide]",25 to 100%
17,"COC(=O)Nc1ccc(C(C)C)c(NC(=O)c2c[nH]c3ccccc3c2=O)c1 [Compound 239, [4-isopropyl-3-[(4-oxo-1H-quinolin-3-yl)carbonylamino]phenyl]aminoformic acid methyl ester]",25 to 100%
18,"O=C(Nc1ccccc1-c1ccccc1C(F)(F)F)c1c[nH]c2ccccc2c1=O [Compound 11, 4-oxo-N-[2-[2-(trifluoromethyl)phenyl]phenyl]-1H-quinoline-3-carboxamide]",25 to 100%

# Continued, values first:
row,Emax,Structure (SMILES)
1,25 to 100%,"COc1cc(NC(=O)c2c[nH]c3ccccc3c2=O)ccc1-n1c(C)ccc1C [Compound 560, N-[4-(2,5-dimethylpyrrol-1-yl)-3-methoxy-phenyl]-4-oxo-1H-quinoline-3-carboxamide]"
2,25 to 100%,"CC(C)(C)c1ccc(NC(=O)c2c[nH]c3cccc(O)c3c2=O)cc1F [Compound 491, N-(3-fluoro-4-tert-butyl-phenyl)-5-hydroxy-4-oxo-1H-quinoline-3-carboxamide]"
3,25 to 100%,"CCCc1ccc(NC(=O)c2c[nH]c3ccccc3c2=O)cc1N(C)C [Compound 462, N-(3-dimethylamino-4-propyl-phenyl)-4-oxo-1H-quinoline-3-carboxamide]"
4,25 to 100%,"O=C(Nc1cc(O)c(Cl)cc1Cl)c1c[nH]c2ccccc2c1=O [Compound 608, N-(2,4-dichloro-5-hydroxy-phenyl)-4-oxo-1H-quinoline-3-carboxamide]"
5,25 to 100%,"Cc1ccccc1-c1nc2cc(NC(=O)c3c[nH]c4ccccc4c3=O)ccc2o1 [Compound 329, N-[2-(o-tolyl)benzooxazol-5-yl]-4-oxo-1H-quinoline-3-carboxamide]"
6,< 25%,"CC(C)(C)c1cc(C(C)(C)C)c(NC(=O)c2c[nH]c3ccc(C#N)cc3c2=O)cc1O [Compound 525, 6-cyano-N-(5-hydroxy-2,4-ditert-butyl-phenyl)-4-oxo-1H-quinoline-3-carboxamide]"
7,25 to 100%,"C[C@H]1CCCN1c1ccc(NC(=O)c2c[nH]c3ccc(F)cc3c2=O)c(C(F)(F)F)c1 [Compound 714, (S)-6-fluoro-N-(4-(2-methylpyrrolidin-1-yl)-2-(trifluoromethyl)phenyl)-4-oxo-1,4-dihydroquinoline-3-carboxamide]"
8,25 to 100%,"COc1ccc2[nH]cc(C(=O)Nc3ccc(N4CCC[C@@H]4C)cc3C(F)(F)F)c(=O)c2c1 [Compound 601, (S)-6-methoxy-N-(4-(2-methylpyrrolidin-1-yl)-2-(trifluoromethyl)phenyl)-4-oxo-1,4-dihydroquinoline-3-carboxamide]"
9,25 to 100%,"Cc1cc(C(C)(C)C)c(O)cc1NC(=O)c1c[nH]c2cccc(O)c2c1=O [Compound 588, 5-hydroxy-N-(5-hydroxy-2-methyl-4-tert-butyl-phenyl)-4-oxo-1H-quinoline-3-carboxamide]"
10,25 to 100%,"Cc1c[nH]c2cccc(NC(=O)c3c[nH]c4ccccc4c3=O)c12 [Compound 338, N-(3-methyl-1H-indol-4-yl)-4-oxo-1H-quinoline-3-carboxamide]"
11,25 to 100%,"CC(C)(C)c1cc(F)c(NC(=O)c2c[nH]c3cccc(O)c3c2=O)cc1O [Compound 407, N-(2-fluoro-5-hydroxy-4-tert-butyl-phenyl)-5-hydroxy-4-oxo-1H-quinoline-3-carboxamide]"
12,25 to 100%,"CC(C)N1CCN(c2ccc(NC(=O)c3c[nH]c4ccccc4c3=O)c(C(F)(F)F)c2)CC1 [Compound 639, N-[4-(4-isopropylpiperazin-1-yl)-2-(trifluoromethyl)phenyl]-4-oxo-1H-quinoline-3-carboxamide]"
13,< 25%,"CC(=O)Nc1cccc(NC(=O)c2c[nH]c3ccccc3c2=O)c1 [Compound 419, N-(3-acetylaminophenyl)-4-oxo-1H-quinoline-3-carboxamide]"
14,25 to 100%,"CC(C)c1ccc(NC(=O)c2c[nH]c3cc(F)c(F)cc3c2=O)c(C(F)(F)F)c1 [Compound 589, 6,7-difluoro-N-[4-isopropyl-2-(trifluoromethyl)phenyl]-4-oxo-1H-quinoline-3-carboxamide]"
15,25 to 100%,"CC(=O)c1ccc2c(=O)c(C(=O)Nc3cc(O)c(C(C)(C)C)cc3C(C)(C)C)c[nH]c2c1 [Compound 604, 7-acetyl-N-(5-hydroxy-2,4-ditert-butyl-phenyl)-4-oxo-1H-quinoline-3-carboxamide]"
16,25 to 100%,"Cc1cccc2[nH]cc(C(=O)Nc3cc4[nH]ccc4cc3C(F)(F)F)c(=O)c12 [Compound 661, 5-methyl-4-oxo-N-[5-(trifluoromethyl)-1H-indol-6-yl]-1H-quinoline-3-carboxamide]"
17,< 25%,"Cc1ccc2c(c1)c(=O)c(C(=O)Nc1ccccc1)cn2C [Compound 394, 1,6-dimethyl-4-oxo-N-phenyl-1H-quinoline-3-carboxamide]"
18,25 to 100%,"Cc1ccc2[nH]cc(C(=O)Nc3cc(O)c(C(C)(C)C)cc3C(C)(C)C)c(=O)c2c1 [Compound 688, N-(5-hydroxy-2,4-ditert-butyl-phenyl)-6-methyl-4-oxo-1H-quinoline-3-carboxamide]"
19,> 100%,"O=C(Nc1ccc(N2CCOCC2)cc1C(F)(F)F)c1c[nH]c2ccccc2c1=O [Compound 598, N-[4-morpholino-2-(trifluoromethyl)phenyl]-4-oxo-1H-quinoline-3-carboxamide]"
20,> 100%,"COC(=O)[C@]1(C)CCCN1c1ccc(NC(=O)c2c[nH]c3ccccc3c2=O)c(C(F)(F)F)c1 [Compound 631, (S)-methyl 2-methyl-1-(4-(4-oxo-1,4-dihydroquinoline-3-carboxamido)-3-(trifluoromethyl)phenyl)pyrrolidine-2-carboxylate]"
21,25 to 100%,"CCOCCc1c[nH]c2cc(NC(=O)c3c[nH]c4ccccc4c3=O)ccc12 [Compound 423, N-[3-(2-ethoxyethyl)-1H-indol-6-yl]-4-oxo-1H-quinoline-3-carboxamide]"
22,> 100%,"CC(C)c1cc(C(F)(F)F)c(NC(=O)c2c[nH]c3ccccc3c2=O)cc1O [Compound 497, N-[5-hydroxy-4-isopropyl-2-(trifluoromethyl)phenyl]-4-oxo-1H-quinoline-3-carboxamide]"
23,25 to 100%,"CN1CCC(C)(C)c2ccc(NC(=O)c3c[nH]c4ccccc4c3=O)cc21 [Compound 710, 4-oxo-N-(1,4,4-trimethyl-2,3-dihydroquinolin-7-yl)-1H-quinoline-3-carboxamide]"
24,25 to 100%,"CCCOc1ccc(NC(=O)c2c[nH]c3ccccc3c2=O)cc1N [Compound 368, N-(3-amino-4-propoxy-phenyl)-4-oxo-1H-quinoline-3-carboxamide]"
